Measurements from patent US5776734A, “DNA encoding the β subunit of a mammalian maxi-K potassium channel” (Merck & Co., Inc., priority 1996, dated 1998).

Columns and labels:
[1] = target: T1, purified maxi-K channel from bovine tracheal smooth muscle (Bos taurus, UniProt Q28067+Q28204); experiment: [125I]ChTX binding to purified maxi-K channel (ChTX receptor); details: for inhibition of 125I-ChTX binding to the purified maxi-K channel: in a manner similar to native tissue channels
T1 construct: Purified sarcolemmal membrane vesicles derived from bovine tracheal smooth muscle; from tissue; host or cells: bovine tracheal smooth muscle sarcolemmal membranes
T1 sequence (Q28204 whole entry): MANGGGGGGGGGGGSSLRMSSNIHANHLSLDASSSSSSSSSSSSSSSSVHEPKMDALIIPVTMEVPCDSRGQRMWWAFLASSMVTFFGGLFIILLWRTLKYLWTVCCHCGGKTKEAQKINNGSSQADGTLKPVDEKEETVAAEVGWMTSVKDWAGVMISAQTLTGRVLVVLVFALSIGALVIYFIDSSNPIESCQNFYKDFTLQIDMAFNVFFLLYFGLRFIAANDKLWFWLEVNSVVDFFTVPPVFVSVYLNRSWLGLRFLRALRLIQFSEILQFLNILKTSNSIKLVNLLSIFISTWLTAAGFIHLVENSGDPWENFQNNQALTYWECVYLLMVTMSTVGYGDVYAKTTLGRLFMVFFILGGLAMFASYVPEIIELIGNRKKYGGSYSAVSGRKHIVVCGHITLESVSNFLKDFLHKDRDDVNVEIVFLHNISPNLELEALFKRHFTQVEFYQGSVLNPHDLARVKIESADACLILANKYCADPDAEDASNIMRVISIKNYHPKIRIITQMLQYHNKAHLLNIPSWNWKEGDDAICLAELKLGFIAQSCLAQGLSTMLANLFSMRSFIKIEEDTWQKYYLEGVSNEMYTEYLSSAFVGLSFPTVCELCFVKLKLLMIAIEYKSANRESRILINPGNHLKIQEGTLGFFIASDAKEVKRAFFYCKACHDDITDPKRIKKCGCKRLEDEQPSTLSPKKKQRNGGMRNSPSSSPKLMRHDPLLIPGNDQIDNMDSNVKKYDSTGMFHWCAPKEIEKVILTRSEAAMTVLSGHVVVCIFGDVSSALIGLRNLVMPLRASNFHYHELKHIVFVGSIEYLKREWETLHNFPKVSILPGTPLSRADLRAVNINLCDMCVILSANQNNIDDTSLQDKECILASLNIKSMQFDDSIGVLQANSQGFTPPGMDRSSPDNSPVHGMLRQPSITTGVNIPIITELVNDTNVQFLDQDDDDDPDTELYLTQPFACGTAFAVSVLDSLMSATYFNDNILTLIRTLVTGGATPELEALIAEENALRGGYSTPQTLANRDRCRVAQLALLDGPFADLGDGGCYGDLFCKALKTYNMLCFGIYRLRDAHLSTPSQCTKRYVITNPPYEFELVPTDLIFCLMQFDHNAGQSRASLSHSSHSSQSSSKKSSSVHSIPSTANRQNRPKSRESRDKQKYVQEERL
T1 sequence (Q28067 2-191): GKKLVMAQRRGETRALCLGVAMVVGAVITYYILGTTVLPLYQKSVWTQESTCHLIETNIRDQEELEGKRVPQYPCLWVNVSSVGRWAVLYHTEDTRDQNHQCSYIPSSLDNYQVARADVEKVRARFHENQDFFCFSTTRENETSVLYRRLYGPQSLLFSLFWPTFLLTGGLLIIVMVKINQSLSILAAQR
Description: Purified sarcolemmal membrane vesicles derived from bovine tracheal smooth muscle were prepared as previously described (Slaughter, R. S., Shevell, J. L., Felix, J. P., Garcia, M. L., and Kaczorowski, G. J., Biochemistry 28, 3995-4002 (1989)). The interaction of [^125 I]ChTX (New England Nuclear Corporation) with maxi-K channels in bovine tracheal sarcolemmal membrane vesicles was monitored as outlined previously (Vazquez, J., Feigenbaum, P., Katz, G., King, V. F., Reuben, J. P., Roy-Contancin, L., Slaughter, R. S., Kaczorowski, G. J., and Garcia, M. L., J. Biol. Chem. 264, 20902-20909 (1989)). Binding of radiolabeled toxin to solubilized channels was measured by incubating aliquots of solubilized material in 0.05% digitonin with [^125 I]ChTX as described (Garcia-Calvo, M., Vazquez, J., Smith, M., Kaczorowski, G. J., and Garcia, M. L. Biochemistry 30, 11157-11164 (1991)). At the end of the incubation period, protein was precipitated by addition of 10% (w/v) PEG (Mw~8000) in the presence of […] and the precipitate was immediately collected onto GF/C glass fiber filters (Whatman) that had been presoaked in 0.5% polyethylenimine. Nonspecific binding was determined in the presence of 10 nM ChTX (Peninsula Laboratories). For each experiment, triplicate assays were routinely performed, and the data were averaged. The standard error of the mean of these replicates was typically less than 3%.

[2] = target: T2, 31,000 component (β subunit) of purified ChTX receptor (Bos taurus, UniProt Q28067+Q28204); experiment: Covalent crosslinking of [125I]ChTX to purified receptor with disuccinimidyl suberate, SDS-PAGE; format: binding, bovine; details: in the presence of disuccinimidyl suberate
T2 construct: Purified sarcolemmal membrane vesicles derived from bovine tracheal smooth muscle; from tissue; host or cells: bovine tracheal smooth muscle sarcolemmal membranes
T2 sequence (Q28204 whole entry): as the sequence (Q28204 whole entry) above
T2 sequence (Q28067 2-191): as the sequence (Q28067 2-191) above
Description: Fractions from the last sucrose density gradient centrifugation containing 31-158 ng of protein were dialyzed against 10 mM Na-borate, pH 9.0, 0.05% Triton X-100 and then reacted with 3.5 mCi of [^125 I]Bolton-Hunter reagent (2200 Ci/mmol; New England Nuclear Corporation) for 15 min on ice. The reaction was quenched by addition of Tris-HCl, pH 7.4 to a final concentration of 100 mM. Covalent incorporation of [^125 I]ChTX into the purified receptor was accomplished with the bifunctional reagent, disuccinimidyl suberate as previously described for crosslinking ChTX to its receptor in membranes (Garcia-Calvo, M., Vazquez, J., Smith, M., Kaczorowski, G. J., and Garcia, M. L. (1991) Biochemistry 30, 11157-11164). Briefly, the purified receptor preparation was incubated with 130 pM [^125 I]ChTX in 10 mM NaCl, 10 mM Taps-NaOH, pH 9.0, 0.1% digitonin, in the absence or presence of unlabeled ChTX, for two hours at room temperature. The solution was then adjusted to 0.2M NaCl and disuccinimidyl suberate was added to a final concentration of 0.18 mM. After incubation at room temperature for 1 min, the reaction was stopped by addition of Tris-HCl, pH 7.4 to a final concentration of 200 mM. Samples were dialyzed against 10 mM Tris-HCl, pH 7.4, 0.05% digitonin, concentrated 10 fold, and subjected to SDS-PAGE. […]

[3] = tested on: maxi-K channel α and β subunits coexpressed in Xenopus oocytes; experiment: Two-electrode voltage clamp of Xenopus oocytes injected with α and β subunit cRNAs; format: cell-based, mouse α subunit, bovine β subunit; details: oocytes injected with both α and β subunit cRNAs
Chain of maxi-K channel α and β subunits coexpressed in Xenopus oocytes (Q08460 66-642 limits assumed): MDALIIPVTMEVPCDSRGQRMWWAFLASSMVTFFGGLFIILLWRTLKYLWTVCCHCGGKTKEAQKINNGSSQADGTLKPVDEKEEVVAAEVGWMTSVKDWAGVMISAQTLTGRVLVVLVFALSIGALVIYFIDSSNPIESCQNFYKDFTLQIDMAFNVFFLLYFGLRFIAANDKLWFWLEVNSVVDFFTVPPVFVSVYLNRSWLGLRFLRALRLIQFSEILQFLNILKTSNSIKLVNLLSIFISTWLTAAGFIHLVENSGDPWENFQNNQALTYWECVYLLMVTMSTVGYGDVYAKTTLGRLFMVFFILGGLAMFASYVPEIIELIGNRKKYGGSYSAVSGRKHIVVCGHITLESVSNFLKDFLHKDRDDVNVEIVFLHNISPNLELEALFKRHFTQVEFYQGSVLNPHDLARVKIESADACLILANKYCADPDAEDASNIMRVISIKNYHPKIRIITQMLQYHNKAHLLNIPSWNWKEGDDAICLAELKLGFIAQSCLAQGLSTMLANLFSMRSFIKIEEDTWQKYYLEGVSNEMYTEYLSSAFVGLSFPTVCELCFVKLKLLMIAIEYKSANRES
Chain of maxi-K channel α and β subunits coexpressed in Xenopus oocytes (as listed by the source): as the sequence (Q28067 2-191) above
Description: (§1) cDNAs encoding both the α and β subunits were used as templates for the production of cRNA. The α subunit cDNA was obtained from Leo Pallanck (Univ. of Wisconsin) and consisted of a full-length mouse brain cDNA (mslo19; GenBank Accession #U09383) in an RNA transcription vector, pGH. […] We therefore used standard techniques to modify the mslo19 cDNA, specifically by deleting the 5' non-coding sequence (bases 1 to 940), and replacing that sequence with a consensus eukaryotic translation initiation sequence: 5'-GCCGCCACC-3'. […] A fragment of the β subunit cDNA, including the entire open reading frame, was subcloned into a pGEM (Promega, inc.) vector for cRNA transcription. The cRNAs encoding both the α and β subunits were transcribed using the appropriate RNA polymerase as determined by the transcription vector (T7 for α, and SP6 for β) and capped in vitro using a kit (mCAP; Stratagene, inc), purified by size-exclusion chromatography using sepahadex G-50 spin columns (Bio-Rad, inc.), and analyzed for purity and length by agarose/formaldehyde gel electrophoresis according to established procedures. […]
(§2) Currents were recorded from Xenopus oocytes using two-electrode voltage-clamp methods to record currents from the entire oocyte and patch-clamp methods to record current from small patches of membrane excised from the oocytes. […]

[4] = tested on: maxi-K channel α subunit (mslo19) expressed in Xenopus oocytes; experiment: Two-electrode voltage clamp of Xenopus oocytes injected with α subunit cRNA alone; format: cell-based, mouse; details: for block of outward potassium currents: no concentration given; for block of outward currents in whole-oocyte voltage clamp: toxin at 10 to 30 nM
Chain of maxi-K channel α subunit (mslo19) expressed in Xenopus oocytes (Q08460 66-642 limits assumed): as the sequence (Q08460 66-642 limits assumed) above
Description: cDNAs encoding both the α and β subunits were used as templates for the production of cRNA. The α subunit cDNA was obtained from Leo Pallanck (Univ. of Wisconsin) and consisted of a full-length mouse brain cDNA (mslo19; GenBank Accession #U09383) in an RNA transcription vector, pGH. […] We therefore used standard techniques to modify the mslo19 cDNA, specifically by deleting the 5' non-coding sequence (bases 1 to 940), and replacing that sequence with a consensus eukaryotic translation initiation sequence: 5'-GCCGCCACC-3'. […] A fragment of the β subunit cDNA, including the entire open reading frame, was subcloned into a pGEM (Promega, inc.) vector for cRNA transcription. The cRNAs encoding both the α and β subunits were transcribed using the appropriate RNA polymerase as determined by the transcription vector (T7 for α, and SP6 for β) and capped in vitro using a kit (mCAP; Stratagene, inc), purified by size-exclusion chromatography using sepahadex G-50 spin columns (Bio-Rad, inc.), and analyzed for purity and length by agarose/formaldehyde gel electrophoresis according to established procedures. Following ethanol precipitation, cRNAs were resuspended in sterile, DEPC-treated water at a concentration of 0.1 to 1 μg/μl, and stored in 2 μl aliquots at […].
Injection of mRNA or cRNA into Xenopus oocytes was done by a modification of established protocols (A. Coleman, Transcription and Translation: A Practical Approach. B. D. Hanes, S. J. Higgins, Eds., 1984); Y. Masu, et al., Nature 329, 836-838 (1987)). Oocytes were surgically removed from 0.17% tricaine anesthetized Xenopus laevis (Xenopus One). The excised ovarian lobes were teased apart with jeweler's forceps and then placed into OR-2 (82.5 mM NaCl, 2 mM KCl, 1 mM MgCl2, 5 mM HEPES, pH 7.4) containing 2 mg/ml collagenase β (Boehringer Mannhiem) for 2 hours at room temperature with a change of the buffer at 1 hour. Isolated oocytes were repeatedly washed in OR-2 until the supernatant remained clear. Stage 5 and 6 oocytes were selected and cultured overnight in supplemented OR-2 (OR-2 containing 1.8 mM CaCl2 and 0.5 mg/ml gentamycin. Oocytes were injected with 46 nl of RNA at a concentration of 0.1 to 1.0 mg/ml in H2 O. RNA was injected using a Nanoject automatic oocyte injector (Drummond Scientific) and injection needles were pulled from 3.5" Drummond capillaries using a Micropipette puller (Kopf Instruments).
as §2, with “oocytes. Recordings were done at room temperature and were performed 1 to 30 days after injection.” for “oocytes.”

[5] = target: maxi-K channel α and β subunits coexpressed in Xenopus oocytes (UniProt Q08460+Q28067); experiment: Patch clamp of excised inside-out patches from oocytes injected with α and β subunit cRNAs; format: cell-based, mouse α subunit, bovine β subunit; details: both subunits; 100-300 nM applied to the intracellular face of the channel
Chain of maxi-K channel α and β subunits coexpressed in Xenopus oocytes (UniProt Q08460+Q28067) (Q08460 whole entry): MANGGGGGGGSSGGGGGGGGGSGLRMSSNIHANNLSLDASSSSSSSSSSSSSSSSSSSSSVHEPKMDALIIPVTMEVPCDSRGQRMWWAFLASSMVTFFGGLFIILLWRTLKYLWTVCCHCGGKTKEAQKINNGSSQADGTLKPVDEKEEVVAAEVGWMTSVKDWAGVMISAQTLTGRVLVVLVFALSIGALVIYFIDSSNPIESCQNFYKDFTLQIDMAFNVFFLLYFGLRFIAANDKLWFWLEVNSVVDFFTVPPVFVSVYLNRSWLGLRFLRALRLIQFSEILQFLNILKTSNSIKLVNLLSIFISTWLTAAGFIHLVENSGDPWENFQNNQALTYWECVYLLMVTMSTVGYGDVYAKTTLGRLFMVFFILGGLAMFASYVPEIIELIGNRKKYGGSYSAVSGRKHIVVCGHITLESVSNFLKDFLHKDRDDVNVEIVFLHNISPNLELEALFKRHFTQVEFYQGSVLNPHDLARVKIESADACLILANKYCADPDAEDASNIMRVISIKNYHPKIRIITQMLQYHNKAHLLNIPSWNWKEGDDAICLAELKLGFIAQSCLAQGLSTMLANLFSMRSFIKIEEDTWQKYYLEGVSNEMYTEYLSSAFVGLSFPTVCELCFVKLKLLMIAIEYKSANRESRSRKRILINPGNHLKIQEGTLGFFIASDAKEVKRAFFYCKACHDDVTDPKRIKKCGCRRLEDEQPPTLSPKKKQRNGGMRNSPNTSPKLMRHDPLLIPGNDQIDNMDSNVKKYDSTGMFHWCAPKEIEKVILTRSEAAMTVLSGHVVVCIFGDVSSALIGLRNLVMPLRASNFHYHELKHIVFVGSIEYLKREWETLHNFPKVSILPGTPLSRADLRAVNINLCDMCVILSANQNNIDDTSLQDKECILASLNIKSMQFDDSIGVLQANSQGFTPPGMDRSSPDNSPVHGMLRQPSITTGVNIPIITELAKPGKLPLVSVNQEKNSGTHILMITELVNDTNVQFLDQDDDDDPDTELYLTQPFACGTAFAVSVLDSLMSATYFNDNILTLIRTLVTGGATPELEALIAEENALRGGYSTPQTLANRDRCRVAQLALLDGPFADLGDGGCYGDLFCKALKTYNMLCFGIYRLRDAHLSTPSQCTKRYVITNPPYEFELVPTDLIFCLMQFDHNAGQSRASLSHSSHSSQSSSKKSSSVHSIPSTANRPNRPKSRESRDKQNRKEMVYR
Chain of maxi-K channel α and β subunits coexpressed in Xenopus oocytes (UniProt Q08460+Q28067) (Q28067 whole entry): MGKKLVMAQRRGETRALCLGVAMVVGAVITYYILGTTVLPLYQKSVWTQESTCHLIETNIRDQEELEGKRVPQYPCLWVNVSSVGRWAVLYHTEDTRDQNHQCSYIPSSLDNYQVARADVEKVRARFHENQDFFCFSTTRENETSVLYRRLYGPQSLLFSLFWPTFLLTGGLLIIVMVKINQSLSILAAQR
Description: as §1, §2

[6] = target: maxi-K channel α subunit (mslo19) expressed in Xenopus oocytes (Mus musculus, UniProt Q08460); experiment: Patch clamp of excised inside-out patches from oocytes injected with α subunit cRNA alone; format: cell-based; details: 100-500 nM
Chain of maxi-K channel α subunit (mslo19) expressed in Xenopus oocytes (Mus musculus, UniProt Q08460) (Q08460 whole entry): as the sequence (Q08460 whole entry) above
Description: as §1, §2

[Ba] [barium]
inhibition of 125I-ChTX binding to the purified maxi-K channel [1]: inhibited

[Cs] [cesium]
inhibition of 125I-ChTX binding to the purified maxi-K channel [1]: inhibited

[K+] [potassium]
inhibition of 125I-ChTX binding to the purified maxi-K channel [1]: inhibited
effect on [125I]ChTX labeling of the 31,000 component [2]: abolished

^125 I-ChTX: radiolabeled toxin (New England Nuclear Corporation)
binding affinity for the purified channel compared with the native maxi-K channel ([1]; purified channel from bovine tracheal smooth muscle): similar

charybdotoxin [ChTX]
inhibition of 125I-ChTX binding to the purified maxi-K channel [1]: inhibited
block of outward potassium currents [3]: blocked
block of outward potassium currents [4]: blocked
block of outward currents in whole-oocyte voltage clamp [4]: blocked

dehydrosoyasaponin I [DHS-I]
channel activation [5]: fully activated
effect on channel open probability / patch currents [6]: not increased

iberiotoxin (QFTDVDCSVSKECWSVCKDLFGVDRGKCMGKKCRCYQ) [IbTX]
inhibition of 125I-ChTX binding to the purified maxi-K channel [1]: inhibited
block of outward potassium currents [3]: blocked
effect on [125I]ChTX labeling of the 31,000 component [2]: abolished
block of outward potassium currents [4]: blocked
block of outward currents in whole-oocyte voltage clamp [4]: blocked

limbatustoxin [LbTX]
inhibition of 125I-ChTX binding to the purified maxi-K channel [1]: inhibited
